The term MIC denotes the least concentration at which growth counts as inhibited.

The text below walks through data of DBAASP.

Common to all, as to test: ≥ marks a high value that may be exact or a test limit, other limits are often not marked, values filed in µg/mL are converted to µM
The subject of test [1] is Bacillus subtilis ATCC 23857.
Test [2] deals with Pseudomonas aeruginosa ATCC 27853.
The test system of test [3] is Escherichia coli ATCC 25922.
Test [4] deals with Acinetobacter baumannii ATCC 19606.
In test [5] the test system is Klebsiella pneumoniae ATCC 700603.
Test [6] relates to Staphylococcus aureus ATCC 25923.
The test system of test [7] is Staphylococcus epidermidis ATCC 12228.
Test [8] deals with Enterococcus faecalis ATCC 29212.
The test system of test [9] is Candida albicans ATCC 2002.
Test [10] has as its system Staphylococcus aureus ATCC 2592.
A further test relates to Bacillus subtilis.
For test [11], the system named is Staphylococcus aureus ATCC BAA-1556.
The test system of another test is Micrococcus luteus.

Structures are written as SMILES. Converted amounts (≈) assume the structure as drawn. A value given as a limit tells only on which side of the number the result lay.

Regarding `CC[C@H](C)[C@H](NC(=O)[C@H](CCCN=C(N)N)NC(=O)[C@H](CCCN=C(N)N)NC(=O)[C@H](Cc1ccccc1)NC(=O)[C@H](Cc1ccccc1)NC(=O)CN)C(=O)N[C@@H](CCCN=C(N)N)C(=O)N[C@H](C(=O)N[C@@H](Cc1ccccc1)C(=O)N[C@@H](Cc1ccccc1)C(N)=O)[C@@H](C)O` [GFFRRIRTFF], the MIC is 8 µM (≈ 10.8 µg/mL) in test [1]; 4 µM (≈ 5.38 µg/mL) in test [2]; 32 µM (≈ 43.1 µg/mL) in [3]; 32 µM (≈ 43.1 µg/mL) in test [4]; 32 µM (≈ 43.1 µg/mL) in test [5]; 8 µM (≈ 10.8 µg/mL) in test [6]. In addition, the minimal inhibitory concentration (MIC) in [7] and in [8] was 32 µM (≈ 43.1 µg/mL) in each case.
For the molecule `CC[C@H](C)[C@H](NC(=O)[C@@H](N)Cc1ccccc1)C(=O)N1CCC[C@H]1C(=O)N[C@@H](CC(C)C)C(=O)N[C@H](C(=O)N[C@@H](CO)C(=O)NCC(=O)N[C@@H](CC(C)C)C(=O)N[C@@H](Cc1ccccc1)C(=O)N[C@@H](CO)C(=O)N[C@@H](CCCN=C(N)N)C(=O)N[C@@H](CC(C)C)C(=O)N[C@@H](CC(C)C)C(N)=O)C(C)C` [FIPLVSGLFSRLL], the MIC is 8.55 µM (≈ 12.5 µg/mL) in test [9], 8.55 µM (≈ 12.5 µg/mL) in test [3] and 4.28 µM (≈ 6.25 µg/mL) in test [10].
With `CC(C)[C@H](N)C(=O)N[C@@H](CCCCN)C(=O)N[C@@H](Cc1c[nH]c2ccccc12)C(=O)N[C@@H](CCCN=C(N)N)C(=O)N[C@@H](Cc1c[nH]c2ccccc12)C(=O)N[C@@H](CCCCN)C(=O)N[C@@H](Cc1c[nH]c2ccccc12)C(=O)N[C@@H](CCCCN)C(=O)N[C@@H](Cc1c[nH]c2ccccc12)C(=O)N[C@@H](CCCN=C(N)N)C(=O)N[C@@H](Cc1c[nH]c2ccccc12)C(=O)N[C@@H](CCCCN)C(=O)N[C@@H](Cc1c[nH]c2ccccc12)C(=O)N[C@@H](CCCCN)C(=O)N[C@@H](Cc1c[nH]c2ccccc12)C(=O)N[C@@H](CCCCN)C(=O)N[C@H](C(N)=O)C(C)C` [VKWRWKWKWRWKWKWKV], the minimum inhibitory concentration (MIC) in test [9] is no less than 38.4 µM; in [3] it was greater than 38.4 µM; against Bacillus subtilis it was no less than 38.4 µM; in test [10], no less than 38.4 µM.
Turning to `CC[C@H](C)[C@H](NC(=O)[C@H](CCCN=C(N)N)NC(=O)[C@H](CCCCN)NC(=O)[C@H](Cc1ccccc1)NC(=O)[C@H](Cc1c[nH]c2ccccc12)NC(=O)[C@@H](N)CCCCN)C(=O)N[C@@H](CCCCN)C(=O)N[C@H](C(=O)N[C@@H](Cc1ccccc1)C(=O)N[C@@H](Cc1c[nH]c2ccccc12)C(N)=O)[C@@H](C)O` [KWFKRIKTFW], the minimal inhibitory concentration (MIC) in [1] is 16 µM (≈ 23 µg/mL); in [2], 8 µM (≈ 11.5 µg/mL); in test [3], 16 µM (≈ 23 µg/mL); in test [4], 128 µM (≈ 184 µg/mL); in test [5], 32 µM (≈ 46 µg/mL); in test [6] it was 16 µM (≈ 23 µg/mL). Moreover, the MIC in test [7] was found to be 128 µM (≈ 184 µg/mL); in [8], 64 µM (≈ 92.1 µg/mL).
`CC(C)C[C@H](NC(=O)[C@H](Cc1c[nH]c2ccccc12)NC(=O)[C@H](CCCN=C(N)N)NC(=O)[C@H](CC(C)C)NC(=O)[C@H](Cc1c[nH]c2ccccc12)NC(=O)[C@H](CCCN=C(N)N)NC(=O)[C@H](CCCN=C(N)N)NC(=O)[C@H](Cc1c[nH]c2ccccc12)NC(=O)[C@@H](N)CCCCN)C(N)=O` [KWRRWLRWL] showed an MIC in [11] of 3.12 µM (≈ 4.37 µg/mL).
Take `CC(C)[C@H](N)C(=O)N[C@@H](CCCCN)C(=O)N[C@@H](Cc1c[nH]c2ccccc12)C(=O)N[C@@H](CCCN=C(N)N)C(=O)N[C@@H](Cc1c[nH]c2ccccc12)C(=O)N[C@@H](CCCCN)C(=O)N[C@@H](CCCCN)C(=O)N[C@@H](Cc1c[nH]c2ccccc12)C(=O)N[C@@H](CCCN=C(N)N)C(=O)N[C@@H](Cc1c[nH]c2ccccc12)C(=O)N[C@@H](CCCCN)C(=O)N[C@@H](Cc1c[nH]c2ccccc12)C(=O)N[C@@H](CCCCN)C(=O)N[C@@H](Cc1c[nH]c2ccccc12)C(=O)N[C@@H](CCCCN)C(=O)N[C@H](C(N)=O)C(C)C` [VKWRWKKWRWKWKWKV]: the minimum inhibitory concentration (MIC) in test [9] is no less than 41.4 µM; in test [3] it was greater than 41.4 µM; against Bacillus subtilis, no less than 41.4 µM; in test [10], no less than 41.4 µM.
Regarding `CC[C@H](C)[C@H](NC(=O)[C@H](C)NC(=O)[C@H](CCCN=C(N)N)NC(=O)[C@H](CCCN=C(N)N)NC(=O)[C@H](Cc1c[nH]c2ccccc12)NC(=O)[C@@H](N)CCCCN)C(=O)N[C@@H](CCCN=C(N)N)C(=O)N[C@@H](Cc1c[nH]c2ccccc12)C(=O)N[C@@H](CC(C)C)C(N)=O` [KWRRAIRWL], in test [11], the MIC is 25 µM (≈ 32.1 µg/mL).
In test [11], `CC(C)C[C@H](NC(=O)[C@H](Cc1c[nH]c2ccccc12)NC(=O)[C@H](Cc1c[nH]c2ccccc12)NC(=O)[C@H](CC(C)C)NC(=O)[C@H](Cc1c[nH]c2ccccc12)NC(=O)[C@@H](N)Cc1c[nH]c2ccccc12)C(=O)N[C@@H](CCCN=C(N)N)C(=O)N[C@@H](Cc1c[nH]c2ccccc12)C(N)=O` [WWLWWLRW] returned a minimum inhibitory concentration (MIC) of 6.25 µM (≈ 8.32 µg/mL).
Regarding `CC[C@H](C)[C@H](NC(=O)CN)C(=O)N[C@H](C(=O)N[C@@H](C)C(=O)NCC(=O)N[C@H](C(=O)N[C@H](C(=O)N[C@H](C(=O)N[C@@H](C)C(=O)N[C@H](C(=O)N[C@@H](CCCCN)C(=O)N[C@@H](CCCCN)C(N)=O)[C@@H](C)CC)[C@@H](C)CC)[C@@H](C)CC)[C@@H](C)CC)[C@@H](C)CC` [GIIAGIIIAIKK], the MIC in test [1] is 8 µM (≈ 9.67 µg/mL); in test [3], greater than 128 µM.
In [11], `CC(C)C[C@H](NC(=O)[C@H](CC(C)C)NC(=O)[C@H](CC(C)C)NC(=O)[C@H](CC(C)C)NC(=O)[C@H](CC(C)C)NC(=O)[C@H](CCCCN)NC(=O)[C@H](CCCCN)NC(=O)[C@H](CC(C)C)NC(=O)[C@@H](N)CC(C)C)C(N)=O` [LLKKLLLLL] had an MIC of 12.5 µM (≈ 13.3 µg/mL).
Regarding `CC[C@H](C)[C@H](NC(=O)[C@H](CCC(=O)O)NC(=O)[C@@H]1CCCN1C(=O)[C@H](CO)NC(=O)[C@H](Cc1ccccc1)NC(=O)[C@H](C)NC(=O)[C@@H](NC(=O)CNC(=O)[C@H](CC(C)C)NC(=O)[C@H](CCCCN)NC(=O)[C@H](C)NC(=O)[C@H](C)NC(=O)[C@H](CCSC)NC(=O)[C@@H](NC(=O)[C@@H](NC(=O)[C@@H](NC(=O)[C@H](CC(C)C)NC(=O)[C@H](CS)NC(=O)[C@H](CC(N)=O)NC(=O)CNC(=O)[C@H](CC(C)C)NC(=O)[C@H](CC(C)C)NC(=O)[C@@H](N)CCCN=C(N)N)[C@@H](C)O)C(C)C)C(C)C)[C@@H](C)O)C(=O)N[C@@H](CCC(N)=O)C(=O)N[C@@H](CS)C(=O)N[C@@H](C)C(=O)N[C@@H](Cc1c[nH]c2ccccc12)C(=O)N[C@@H](CCC(N)=O)C(=O)N[C@@H](CCCCN)C(=O)O` [RLLGNCLTVVMAAKLGTAFSPEIQCAWQK], the minimal inhibitory concentration (MIC) with Micrococcus luteus was determined as 31.2 µM (≈ 98.3 µg/mL).
As to `CC[C@H](C)[C@@H]1NC(=O)[C@H](CO)NC(=O)[C@H](CCCCN)NC(=O)[C@H]([C@@H](C)O)NC(=O)[C@H](Cc2c[nH]c3ccccc23)NC(=O)[C@@H](N)CSSC[C@@H](C(=O)N[C@@H](Cc2ccccc2)C(=O)O)NC(=O)[C@@H]2CCCN2C(=O)[C@H](CCCCN)NC(=O)[C@@H]2CCCN2C(=O)[C@@H]2CCCN2C1=O` [CWTKSIPPKPCF], the minimal inhibitory concentration (MIC) in test [9] came to 13.8 µM (≈ 19.4 µg/mL); in test [3], 6.33 µM (≈ 8.89 µg/mL); against Bacillus subtilis, 7.46 µM (≈ 10.5 µg/mL); in [10] it was 4.24 µM (≈ 5.95 µg/mL).
For the molecule `CC[C@H](C)[C@H](NC(=O)CN)C(=O)N[C@@H](CCCN=C(N)N)C(=O)N[C@@H](CCCN=C(N)N)C(=O)NCC(=O)N[C@H](C(=O)N[C@@H](CCCN=C(N)N)C(=O)N[C@@H](CCCN=C(N)N)C(=O)N[C@H](C(=O)N[C@H](C(=O)N[C@@H](CCCCN)C(=O)N[C@@H](CCCN=C(N)N)C(N)=O)[C@@H](C)CC)[C@@H](C)CC)[C@@H](C)CC` [GIRRGIRRIIKR], the MIC in test [1] is no less than 128 µM; in test [3] it was greater than 128 µM.
Take `CC(C)C[C@H](NC(=O)[C@H](CCCCN)NC(=O)[C@H](CC(C)C)NC(=O)[C@H](CC(C)C)NC(=O)[C@H](Cc1c[nH]c2ccccc12)NC(=O)[C@H](CCCCN)NC(=O)[C@H](CC(C)C)NC(=O)[C@H](CC(C)C)NC(=O)[C@H](CCCCN)NC(=O)[C@@H](N)CCCCN)C(N)=O` [KKLLKWLLKL]: the MIC in [11] is 12.5 µM (≈ 16 µg/mL).
In turn, `CC[C@H](C)[C@H](NC(=O)[C@H](CC(C)C)NC(=O)[C@H](CCCN=C(N)N)NC(=O)[C@H](CCCN=C(N)N)NC(=O)[C@H](Cc1c[nH]c2ccccc12)NC(=O)[C@@H](N)CCCCN)C(=O)N[C@@H](CCCN=C(N)N)C(=O)N[C@@H](Cc1c[nH]c2ccccc12)C(=O)N[C@@H](CC(C)C)C(N)=O` [KWRRLIRWL] gave a minimum inhibitory concentration (MIC) in test [11] of 25 µM (≈ 33.1 µg/mL).
On the same count and under the same terms, the same measure for `CC(C)C[C@H](NC(=O)[C@H](CC(C)C)NC(=O)[C@H](CCCCN)NC(=O)[C@H](CC(C)C)NC(=O)[C@H](CCCCN)NC(=O)[C@H](CC(C)C)NC(=O)[C@H](CC(C)C)NC(=O)[C@H](CC(C)C)NC(=O)[C@@H](N)CC(C)C)C(N)=O` [LLLLKLKLL]: no less than 100 µM; for `CC(C)C[C@H](NC(=O)[C@H](Cc1c[nH]c2ccccc12)NC(=O)[C@H](Cc1c[nH]c2ccccc12)NC(=O)[C@H](CC(C)C)NC(=O)[C@H](Cc1c[nH]c2ccccc12)NC(=O)[C@H](Cc1c[nH]c2ccccc12)NC(=O)[C@H](CC(C)C)NC(=O)[C@H](Cc1c[nH]c2ccccc12)NC(=O)[C@@H](N)CCCN=C(N)N)C(N)=O` [RWLWWLWWL]: 6.25 µM (≈ 9.02 µg/mL).
